The target of assay [1] is T1, 5-HT2C receptor (Rattus norvegicus, UniProt P08909).
T1 sequence (P08909 33-460): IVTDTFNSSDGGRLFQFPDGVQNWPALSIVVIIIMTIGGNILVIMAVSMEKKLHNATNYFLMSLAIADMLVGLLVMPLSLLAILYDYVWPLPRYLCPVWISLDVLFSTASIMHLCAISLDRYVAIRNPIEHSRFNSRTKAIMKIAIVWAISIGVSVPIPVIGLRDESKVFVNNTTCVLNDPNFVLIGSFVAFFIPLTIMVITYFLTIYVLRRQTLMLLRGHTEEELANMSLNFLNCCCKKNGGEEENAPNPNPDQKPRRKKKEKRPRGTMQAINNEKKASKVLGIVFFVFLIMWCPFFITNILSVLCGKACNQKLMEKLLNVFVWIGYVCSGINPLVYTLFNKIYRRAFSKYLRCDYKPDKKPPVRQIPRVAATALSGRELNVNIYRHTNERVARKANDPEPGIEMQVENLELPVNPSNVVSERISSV
The experiment in a line: Radioligand binding, Rat 2C (Table I). As to the method: (§1) [^3 H]5-HT binding studies. Binding assays were automated using a Biomek 1000 (Beckman instruments, Fullerton, Calif.) and were performed in triplicate in 0.8 ml total volume. Membrane suspension, 200 μl, (0.04-0.27 mg protein) and 200 μl of drug dilution in water were added to 400 μl of 67 mM Tris-HCl, pH 7.4, containing [^3 H]5-HT, pargyline, CaCl2, and L-ascorbic acid. Final concentrations of pargyline, CaCl2 and L-ascorbic acid were 10 μM, 3 mM and 0.1%, respectively. Tubes were incubated at 37° C. for 15 min or at 0° C. for 2 hours (binding equilibria were verified for both of these conditions), then rapidly filtered using a Brandel cell harvester (Model MB-48R; Brandel, Gaithersburg, Md.) through Whatman GF/B filters which had been presoaked in 0.5% polyethylenimine and precooled with ice-cold 50 mM Tris-HCl, pH 7.4. The filters were then washed rapidly four times with one ml ice-cold 50 mM Tris-HCl, pH 7.4. The amount of [^3 H]5-HT trapped on the filters was determined by liquid scintillation spectrometry (Ready Protein and Beckman automated using a Biomek 1000 (Beckman Instruments, Fullerton, Calif.) and were performed in triplicate in 0.8 ml total volume. Membrane suspension, 200 μl, (0.04-0.27 mg protein) and 200 μl of drug dilution in water were added to 400 μl of 67 mM Tris-HCl, pH 7.4, containing [^3 H]5-HT, pargyline, CaCl2, and L-ascorbic acid. Final concentrations of pargyline, CaCl2 and L-ascorbic acid were 10 μM, 3 mM and 0.1%, respectively. Tubes were incubated at 37° C. for 15 min or at 0° C. for 2 hours (binding equilibria were verified for both of these conditions), then rapidly filtered using a Brandel cell harvester (Model MB-48R; Brandel, Gaithersburg, Md.) through Whatman GF/B filters which had been presoaked in 0.5% polyethylenimine and precooled with ice-cold 50 mM Tris-HCl, pH 7.4. […]
(§2) Compounds of this invention were tested using the described in vitro assay. Results of the radioligand binding experiments are illustrated in Table I. The values reported in Table I are expressed as Ki calculated as described infra.

Assay [2] concerns the target T2, cloned rat 5-HT2B receptor (Rattus norvegicus, UniProt P30994).
T2 construct: expressed in transfected cells
The experiment in a line: Radioligand binding, [3H]5-HT, cloned rat 5-HT2B receptor (Table I). The method, then: Radioligand Binding Studies
Membrane preparation from transformed cells. Suspension cells expressing the cloned rat 5-HT2B receptor were harvested by centrifugation at 2,200 ×g for 15 min at 4° C. Kursar, J. D., D. L. Nelson, D. B. Wainscott, M. L. Cohen, and M. Baez, Mol. Pharmacol., 42: 549-557 (1992). Membranes for the binding assays were prepared by vortexing the pellet in 50 mM Tris-HCl, pH 7.4 (0.5×10^9 cells/30 ml). The tissue suspension was then centrifuged at 39,800 ×g for 10 min at 4° C. This procedure was repeated for a total of three washes, with a 10 minute incubation at 37° C. between the first and second wash. The final pellet was homogenized in 67 mM Tris-HCl, pH 7.4 (at 20-40 and 12.5 million cells/ml, original cell number, for cells expressing low and relatively high levels of the 5-HT2B receptor, respectively) using a Tissumizer (Tekmar, Cincinnati, Ohio), setting 65 for 15 seconds.
[^3 H]5-HT binding studies. Binding assays were automated using a Biomek 1000 (Beckman instruments, Fullerton, Calif.) and were performed in triplicate in 0.8 ml total volume. Membrane suspension, 200 μl, (0.04-0.27 mg protein) and 200 μl of drug dilution in water were added to 400 μl of 67 mM Tris-HCl, pH 7.4, containing [^3 H]5-HT, pargyline, CaCl2, and L-ascorbic acid. Final concentrations of pargyline, CaCl2 and L-ascorbic acid were 10 μM, 3 mM and 0.1%, respectively. Tubes were incubated at 37° C. for 15 min or at 0° C. for 2 hours (binding equilibria were verified for both of these conditions), then rapidly filtered using a Brandel cell harvester (Model MB-48R; Brandel, Gaithersburg, Md.) through Whatman GF/B filters which had been presoaked in 0.5% polyethylenimine and precooled with ice-cold 50 mM Tris-HCl, pH 7.4. The filters were then washed rapidly four times with one ml ice-cold 50 mM Tris-HCl, pH 7.4. The amount of [^3 H]5-HT trapped on the filters was determined by liquid scintillation spectrometry (Ready Protein and Beckman automated using a Biomek 1000 (Beckman Instruments, Fullerton, Calif.) and were performed in triplicate in 0.8 ml total volume. Membrane suspension, 200 μl, (0.04-0.27 mg protein) and 200 μl of drug dilution in water were added to 400 μl of 67 mM Tris-HCl, pH 7.4, containing [^3 H]5-HT, pargyline, CaCl2, and L-ascorbic acid. Final concentrations of pargyline, CaCl2 and L-ascorbic acid were 10 μM, 3 mM and 0.1%, respectively. Tubes were incubated at 37° C. for 15 min or at 0° C. for 2 hours (binding equilibria were verified for both of these conditions), then rapidly filtered using a Brandel cell harvester (Model MB-48R; Brandel, Gaithersburg, Md.) through Whatman GF/B filters which had been presoaked in 0.5% polyethylenimine and precooled with ice-cold 50 mM Tris-HCl, pH 7.4. The filters were then washed rapidly four times with one ml ice-cold 50 mM Tris-HCl, pH 7.4. The amount of [^3 H]5-HT trapped on the filters was determined by liquid scintillation spectrometry (Ready Protein and Beckman determined for best fit to a one-site or a two-site binding model using a partial […]. De Lean, A., A. A. Hancock, and R. J. Lefkowitz, Mol. Pharmacol., 21:5-16 (1981). The following equation was used for a one-site binding model, [formula] where Bound=amount of [^3 H]5-HT specifically bound, Bmax =maximum number of binding sites, Kd =equilibrium dissociation constant and [L]=free concentration of [^3 H]5-HT, or a two-site binding model, [formula] where Bound=amount of [^3 H]5-HT specifically bound, Bmax1 =maximum number of high affinity binding sites, Bmax2 =maximum number of low affinity binding sites, Kd1 =equilibrium dissociation constant for the high affinity site, Kd2 =equilibrium dissociation constant for the low affinity site and [L]=free concentration of [^3 H]5-HT. […]

The target of assay [3] is T3, 5-HT2C receptor (Homo sapiens, UniProt P28335).
T3 sequence (P28335 33-458): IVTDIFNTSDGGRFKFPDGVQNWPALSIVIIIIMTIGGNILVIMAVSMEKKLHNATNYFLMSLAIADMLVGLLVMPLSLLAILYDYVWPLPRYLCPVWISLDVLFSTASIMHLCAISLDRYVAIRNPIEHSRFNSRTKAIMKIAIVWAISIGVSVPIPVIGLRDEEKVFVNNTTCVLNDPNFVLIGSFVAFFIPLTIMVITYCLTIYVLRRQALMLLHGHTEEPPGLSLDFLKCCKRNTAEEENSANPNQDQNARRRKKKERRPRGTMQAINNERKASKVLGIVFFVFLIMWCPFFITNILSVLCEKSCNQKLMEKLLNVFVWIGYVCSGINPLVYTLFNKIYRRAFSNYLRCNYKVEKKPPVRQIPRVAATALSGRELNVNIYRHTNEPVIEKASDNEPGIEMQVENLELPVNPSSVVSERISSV
The assay can be described thus: Radioligand binding, Human 2C (Table I). As to the method:
as §1, §2

Assay [4] has as its target 5-HT2B receptor (Homo sapiens, UniProt P41595). The assay can be described thus: Radioligand binding, Human 2B (Table I). As to the method: as §1, with “Tubes were incubated at 37° C. for 15 min or at 0° C. for 2 hours (binding equilibria were verified for both of these conditions), then rapidly filtered using a Brandel cell harvester (Model MB-48R; Brandel, Gaithersburg, Md.) through Whatman GF/B filters which had been presoaked in 0.5% polyethylenimine and precooled with ice-cold 50 mM Tris-HCl, pH 7.4. The filters were then washed rapidly four times with one ml ice-cold 50 mM Tris-HCl, pH 7.4.” left out

[5] abbreviates: Rat 2C, Ki from IC50 by Cheng-Prusoff, read-out: Ki Rat 2C.
The mark [6] stands for this setting: cloned rat 5-HT2B receptor, [3H]5-HT, Ki from IC50 by Cheng-Prusoff, read-out: Ki Rat 2B.
The mark [7] stands for this setting: Human 2C, Ki from IC50 by Cheng-Prusoff, read-out: Ki Human 2C.

Like-named read-outs stand apart in the source and are kept apart here.

T2 sequence (P30994 whole entry): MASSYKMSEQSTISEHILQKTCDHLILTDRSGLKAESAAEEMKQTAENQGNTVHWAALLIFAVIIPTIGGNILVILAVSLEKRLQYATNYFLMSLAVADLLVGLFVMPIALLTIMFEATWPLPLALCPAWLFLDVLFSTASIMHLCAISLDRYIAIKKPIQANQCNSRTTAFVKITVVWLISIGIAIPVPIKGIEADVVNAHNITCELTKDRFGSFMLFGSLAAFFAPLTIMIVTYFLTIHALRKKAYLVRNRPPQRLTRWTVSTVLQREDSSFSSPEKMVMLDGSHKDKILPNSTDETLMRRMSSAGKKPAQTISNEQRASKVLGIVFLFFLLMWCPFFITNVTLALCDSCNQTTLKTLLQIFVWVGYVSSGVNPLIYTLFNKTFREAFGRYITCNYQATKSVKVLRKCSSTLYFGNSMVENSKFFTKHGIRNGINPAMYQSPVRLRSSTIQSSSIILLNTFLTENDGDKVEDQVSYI
Chain of 5-HT2B receptor (P41595 whole entry): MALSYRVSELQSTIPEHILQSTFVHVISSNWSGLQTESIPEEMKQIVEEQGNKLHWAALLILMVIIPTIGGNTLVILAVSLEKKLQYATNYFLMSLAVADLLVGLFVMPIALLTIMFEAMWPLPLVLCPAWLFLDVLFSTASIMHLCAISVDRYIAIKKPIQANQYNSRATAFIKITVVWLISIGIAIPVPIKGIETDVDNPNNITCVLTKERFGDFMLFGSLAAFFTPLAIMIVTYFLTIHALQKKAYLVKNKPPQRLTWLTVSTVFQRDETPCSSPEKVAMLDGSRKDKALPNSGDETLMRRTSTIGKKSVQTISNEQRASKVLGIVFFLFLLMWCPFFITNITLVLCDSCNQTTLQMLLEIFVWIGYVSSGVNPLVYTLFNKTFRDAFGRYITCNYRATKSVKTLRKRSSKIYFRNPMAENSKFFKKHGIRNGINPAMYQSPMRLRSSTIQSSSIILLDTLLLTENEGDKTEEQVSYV

As to `Cc1ccc2c3c([nH]c2c1Br)CNCC3` [Example 1, 7-methyl-8-bromo-1,2,3,4-tetrahydro-9H-pyrido[3,4b]-indole], the results for the inhibition constant Ki in assay [1] (setting [5]), in assay [2] (setting [6]) and in assay [3] (setting [7]) were 14.2 nM, 3.17 nM and 18.2 nM, respectively.
Consider `COc1cccc2c3c([nH]c12)CNCC3` [Example 2, 8-methoxy-1,2,3,4-tetrahydro-9H-pyrido[3,4b]-indole], for which the Ki in assay [2] was determined as 34.5 nM.
On to `CCCN1CCc2c([nH]c3c(OC)cccc23)C1` [Example 3, 8-methoxy-2(N)-propy1,2,3,4-tetrahydro-9H-pyrido[3,4b]-indole], for which the affinity in assay [2], expressed as Ki, was 114 nM.
Still for that read-out and setting: in the case of `COc1cccc2c3c([nH]c12)CN(C)CC3` [Example 4, 8-methoxy-2(N)-methyl-1,2,3,4-tetrahydro-9H-pyrido[3,4b]-indole] it was 71.7 nM; in that of `COc1cccc2c3c([nH]c12)CN(CC1CC1)CC3` [Example 5, 8-methoxy-2(N)-cyclopropylmethyl-1,2,3,4-tetrahydro-9H-pyrido[3,4b]-indole], 97.5 nM.
For the molecule `CN1CCc2c([nH]c3ccc(O)cc23)C1` [Example 6], the Ki in assay [2] (setting [6]) came out at 4610 nM.
Turning to `Cc1ccc2c3c([nH]c2c1C)CNCC3` [Example 7, 7,8-dimethyl-1,2,3,4-tetrahydro-9H-pyrido[3,4b]-indole], the Ki in assay [2] (setting [6]) stood at 15.8 nM.
For `Cc1cc(Br)c2[nH]c3c(c2c1)CCNC3` [Example 8, 6-methyl-8-bromo-1,2,3,4-tetrahydro-9H-pyrido[3,4b]-indole], the inhibitory constant (Ki) in assay [1] (setting [5]) was found to be 34.9 nM; in assay [2] (setting [6]), 14 nM; in assay [3] (setting [7]), 38.6 nM; in assay [4] (Human 2B, Ki from IC50 by Cheng-Prusoff, read-out: Ki Human 2B), 16.4 nM.
Regarding `Fc1cc(F)c2[nH]c3c(c2c1)CCNC3` [Example 9, 6,8-difluoro-1,2,3,4-tetrahydro-9H-pyrido[3,4b]-indole], the Ki in assay [2] came to 57.9 nM.
Take `Brc1cccc2c3c([nH]c12)CNCC3` [Example 10, 8-bromo-1,2,3,4-tetrahydro-9H-pyrido[3,4b]-indole]: the Ki stood at 22.4 nM in assay [1], 6.2 nM in assay [2], 13.2 nM in assay [3] and 9.68 nM in assay [4].

A word on the Ki: it is a measure of affinity in units of concentration, obtained from inhibition or displacement.
